In assay [1] the test system is Escherichia coli strain MC4100 IMP-4213, which harbors an LptD mutation. The following applies: E. coli MC4100 IMP-4213; 35° C., 22 hours. The essentials:
(§1)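 CLSI broth microdilution in cation-adjusted Mueller Hinton Broth with 0.002% Tween-80, two-fold dilutions starting at 64 μg/ml.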

Assay [2] has as its system methicillin resistant Staphylococcus aureus (MRSA) strain USA300 (NRS384). The following applies: MRSA USA300 (NRS384); 35° C., 22 hours. The essentials: as §1
The target of the next assay is T1, E. coli SPase (Escherichia coli, UniProt P00803).
T1 construct: Full length His-tagged E. coli SPase proteins; His; made in house; host or cells: E. coli BL21(DE3)
T1 sequence (P00803 whole entry): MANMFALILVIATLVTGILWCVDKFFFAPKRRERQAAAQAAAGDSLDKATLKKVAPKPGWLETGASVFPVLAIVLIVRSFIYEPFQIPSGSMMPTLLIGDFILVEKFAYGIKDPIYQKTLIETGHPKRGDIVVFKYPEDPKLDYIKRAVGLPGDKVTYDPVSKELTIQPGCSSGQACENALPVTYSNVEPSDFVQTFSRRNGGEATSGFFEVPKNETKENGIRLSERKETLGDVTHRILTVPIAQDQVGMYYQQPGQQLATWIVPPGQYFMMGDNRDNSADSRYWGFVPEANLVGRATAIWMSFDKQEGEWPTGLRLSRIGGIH
Briefly: Biochemical SPase activity assay, fluorogenic peptide substrate, E. coli enzyme. The note with it: 20 μM substrate, 10 minutes preincubation, read-out: IC 50 (nM) E. coli.

The target of another assay is S. aureus SPase (Staphylococcus aureus, UniProt P0A070). The assay can be described thus: biochemical. The following applies: IC 50 (nM) S. aureus, 20 μM substrate, 10 minutes preincubation.
Chain of S. aureus SPase (P0A070 whole entry): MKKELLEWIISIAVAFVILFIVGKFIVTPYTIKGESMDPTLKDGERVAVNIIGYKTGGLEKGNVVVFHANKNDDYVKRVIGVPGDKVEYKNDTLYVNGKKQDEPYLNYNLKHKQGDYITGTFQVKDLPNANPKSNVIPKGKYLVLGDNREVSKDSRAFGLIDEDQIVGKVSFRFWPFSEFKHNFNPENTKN

≈ marks a conversion by molar mass, not a printed value. *1 amine or outer side, *2 acyl side, *3 side chain or, on linkers, in order; H or OH if unused. Where a SMILES comes first, the peptide text is derived from it. [ ]: non-standard residue; d: D form. The star is where a group is joined. boroAla((+)-pinanediol) = C[C@H](N*)B1O[C@@H]2C[C@@H]3C[C@@H](C3(C)C)[C@]2(C)O1; X11 = CCCCc1ccc(-c2nc(C(=O)*)cs2)cc1; X4 = c1ccc(C2CCN(*)CC2)cc1; Octanoyl = CCCCCCCC(=O)*; Dab = NCC[C@H](N)C(=O)O; CO = O=C([*:1])[*:2]

Consider `CCCCCCCC(=O)N[C@@H](CCN)C(=O)N[C@H](C(=O)N[C@@H](C)C(=O)N[C@@H](CCCCN)C(=O)N[C@@H](C)B1O[C@@H]2C[C@@H]3C[C@@H](C3(C)C)[C@]2(C)O1)[C@@H](C)O` [Compound 114] (Octanoyl-[Dab]TAK-{boroAla((+)-pinanediol)}), for which, in assay [1], the “MIC (μg/mL) E. coli” value was 32 µg/mL (≈ 42.7 µM). Moreover, the “MIC (μg/mL) S. aureus” value in assay [2] was determined as 13 µg/mL (≈ 17.3 µM). For the same compound, the IC50 at E. coli SPase was 64 nM; against S. aureus SPase, 250 nM.
For `CCCCc1ccc(-c2nc(C(=O)N[C@@H](CCN)C(=O)N[C@H](C(=O)N[C@@H](C)C(=O)N[C@@H](CCCCN)C(=O)N[C@@H](C)B3O[C@@H]4C[C@@H]5C[C@@H](C5(C)C)[C@]4(C)O3)[C@@H](C)O)cs2)cc1` [Compound 121] (X11-[Dab]TAK-{boroAla((+)-pinanediol)}) the same measures were 1.3 µg/mL (≈ 1.5 µM), 0.4 µg/mL (≈ 0.461 µM), 54 nM and 280 nM.
For `C[C@H](NC(=O)[C@H](CCCCN)NC(=O)[C@H](C)NC(=O)[C@@H](NC(=O)[C@H](CCCCN)NC(=O)N1CCC(c2ccccc2)CC1)[C@@H](C)O)B1O[C@@H]2C[C@@H]3C[C@@H](C3(C)C)[C@]2(C)O1` [Compound 126] ({X4-CO}-KTAK-{boroAla((+)-pinanediol)}) the same measures were >64 µg/mL, 64 µg/mL (≈ 76.3 µM), 230 nM and 250 nM.
In the same order, the values of `CC(=O)N[C@@H](CCN)C(=O)N[C@H](C(=O)N[C@@H](C)C(=O)N[C@@H](CCCCN)C(=O)N[C@@H](C)B1O[C@@H]2C[C@@H]3C[C@@H](C3(C)C)[C@]2(C)O1)[C@@H](C)O` [Compound 113] (Ac-[Dab]TAK-{boroAla((+)-pinanediol)}) are >64 µg/mL, >64 µg/mL, 5700 nM and 1200 nM.

The record behind these values is US20160194358A1, “LINEAR PEPTIDE ANTIBIOTCS” (priority 2013, published 2016).
